Reference: the supplement of paper PMC5303821, “Major sulfonate transporter Soa1 in Saccharomyces cerevisiae and considerable substrate diversity in its fungal family” (Nature Communications, 2017)

Key:
[1] = test system: Ogataea parapolymorpha_XP_013935289; assay: maximal growth rate with compound as sole sulfur source (OD600 per h); higher = better growth / uptake of the sulfur source; conditions: S. cerevisiae S288C/BY sul1Δ sul2Δ soa1Δ with transporter ortholog inserted at SOA1 locus, sulfur-free B medium, 4% glucose, pH 6.5, sole sulfur source
Experimental: (§1)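 S. cerevisiae sul1Δ sul2Δ soa1Δ strains expressing 20 fungal SOA1 orthologs (or no transporter, 'soa1 del') were grown in liquid sulfur-free B medium, 4% glucose, pH 6.5 (7 mM K2HPO4). The strains were sulfur-starved for 3 days beforehand. Each sulfur compound was the sole sulfur source at 200 µM (sulfate also at 40 mM). OD600 curves of duplicate cultures were averaged and fitted (logistic / Richards, GroFit) to give maximal growth rate, maximal density and lag phase; temperature not stated.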

[2] = test system: Ogataea parapolymorpha_XP_013936897; assay: as above; conditions: S. cerevisiae S288C/BY sul1Δ sul2Δ soa1Δ with transporter ortholog inserted at SOA1 locus, sulfur-free B medium, 4% glucose, pH 6.5, sole sulfur source
Experimental: as §1

[3] = test system: Saccharomyces eubayanus_SOA2; assay: as above; conditions: S. cerevisiae S288C/BY sul1Δ sul2Δ soa1Δ with transporter ortholog inserted at SOA1 locus, sulfur-free B medium, 4% glucose, pH 6.5, sole sulfur source
Experimental: as §1

[4] = test system: Saccharomyces uvarum_SOA1; assay: as above; conditions: S. cerevisiae S288C/BY sul1Δ sul2Δ soa1Δ with transporter ortholog inserted at SOA1 locus, sulfur-free B medium, 4% glucose, pH 6.5, sole sulfur source
Experimental: as §1

[5] = test system: Saccharomyces eubayanus_SOA1; assay: as above; conditions: S. cerevisiae S288C/BY sul1Δ sul2Δ soa1Δ with transporter ortholog inserted at SOA1 locus, sulfur-free B medium, 4% glucose, pH 6.5, sole sulfur source
Experimental: as §1

[6] = test system: Aspergillus nidulans (IAM 2006)_astA; assay: as above; conditions: S. cerevisiae S288C/BY sul1Δ sul2Δ soa1Δ with transporter ortholog inserted at SOA1 locus, sulfur-free B medium, 4% glucose, pH 6.5, sole sulfur source
Experimental: as §1

[7] = test system: Aspergillus nidulans_CBF80346; assay: as above; conditions: S. cerevisiae S288C/BY sul1Δ sul2Δ soa1Δ with transporter ortholog inserted at SOA1 locus, sulfur-free B medium, 4% glucose, pH 6.5, sole sulfur source
Experimental: as §1

[8] = test system: Aspergillus nidulans_XP_660670; assay: as above; conditions: S. cerevisiae S288C/BY sul1Δ sul2Δ soa1Δ with transporter ortholog inserted at SOA1 locus, sulfur-free B medium, 4% glucose, pH 6.5, sole sulfur source
Experimental: as §1

[9] = test system: Ogataea parapolymorpha_XP_013932458; assay: as above; conditions: S. cerevisiae S288C/BY sul1Δ sul2Δ soa1Δ with transporter ortholog inserted at SOA1 locus, sulfur-free B medium, 4% glucose, pH 6.5, sole sulfur source
Experimental: as §1

[10] = test system: Metarhizium robertsii_XP_007821441; assay: as above; conditions: S. cerevisiae S288C/BY sul1Δ sul2Δ soa1Δ with transporter ortholog inserted at SOA1 locus, sulfur-free B medium, 4% glucose, pH 6.5, sole sulfur source
Experimental: as §1

[11] = test system: Saccharomyces uvarum_SOA2; assay: as above; conditions: S. cerevisiae S288C/BY sul1Δ sul2Δ soa1Δ with transporter ortholog inserted at SOA1 locus, sulfur-free B medium, 4% glucose, pH 6.5, sole sulfur source
Experimental: as §1

[12] = test system: Aspergillus nidulans_XP_661733; assay: as above; conditions: S. cerevisiae S288C/BY sul1Δ sul2Δ soa1Δ with transporter ortholog inserted at SOA1 locus, sulfur-free B medium, 4% glucose, pH 6.5, sole sulfur source
Experimental: as §1

[13] = test system: Aspergillus nidulans_XP_681611; assay: as above; conditions: S. cerevisiae S288C/BY sul1Δ sul2Δ soa1Δ with transporter ortholog inserted at SOA1 locus, sulfur-free B medium, 4% glucose, pH 6.5, sole sulfur source
Experimental: as §1

[14] = test system: Fusarium oxysporum_ENH65823; assay: as above; conditions: S. cerevisiae S288C/BY sul1Δ sul2Δ soa1Δ with transporter ortholog inserted at SOA1 locus, sulfur-free B medium, 4% glucose, pH 6.5, sole sulfur source
Experimental: as §1

[15] = test system: Aspergillus nidulans_XP_661711; assay: as above; conditions: S. cerevisiae S288C/BY sul1Δ sul2Δ soa1Δ with transporter ortholog inserted at SOA1 locus, sulfur-free B medium, 4% glucose, pH 6.5, sole sulfur source
Experimental: as §1

[16] = test system: Metarhizium robertsii_XP_007823832; assay: as above; conditions: S. cerevisiae S288C/BY sul1Δ sul2Δ soa1Δ with transporter ortholog inserted at SOA1 locus, sulfur-free B medium, 4% glucose, pH 6.5, sole sulfur source
Experimental: as §1

[17] = test system: Metarhizium robertsii_XP_007822519; assay: as above; conditions: S. cerevisiae S288C/BY sul1Δ sul2Δ soa1Δ with transporter ortholog inserted at SOA1 locus, sulfur-free B medium, 4% glucose, pH 6.5, sole sulfur source
Experimental: as §1

[18] = test system: Saccharomyces cerevisiae_SOA1; assay: as above; conditions: S. cerevisiae S288C/BY sul1Δ sul2Δ soa1Δ with transporter ortholog inserted at SOA1 locus, sulfur-free B medium, 4% glucose, pH 6.5, sole sulfur source
Experimental: as §1

[19] = test system: Aspergillus nidulans_XP_660563; assay: as above; conditions: S. cerevisiae S288C/BY sul1Δ sul2Δ soa1Δ with transporter ortholog inserted at SOA1 locus, sulfur-free B medium, 4% glucose, pH 6.5, sole sulfur source
Experimental: as §1

[20] = test system: Aspergillus nidulans_CBF74694; assay: as above; conditions: S. cerevisiae S288C/BY sul1Δ sul2Δ soa1Δ with transporter ortholog inserted at SOA1 locus, sulfur-free B medium, 4% glucose, pH 6.5, sole sulfur source
Experimental: as §1

soa1 del = assay: as above; conditions: S. cerevisiae S288C/BY sul1Δ sul2Δ soa1Δ with transporter ortholog inserted at SOA1 locus, sulfur-free B medium, 4% glucose, pH 6.5, sole sulfur source
Experimental: as §1

[21] = test system: Ogataea parapolymorpha_XP_013936897; assay: maximal culture density with compound as sole sulfur source (OD600); higher = better growth; conditions: S. cerevisiae S288C/BY sul1Δ sul2Δ soa1Δ with transporter ortholog inserted at SOA1 locus, sulfur-free B medium, 4% glucose, pH 6.5, sole sulfur source
Experimental: as §1

[22] = test system: Saccharomyces eubayanus_SOA2; assay: as above; conditions: S. cerevisiae S288C/BY sul1Δ sul2Δ soa1Δ with transporter ortholog inserted at SOA1 locus, sulfur-free B medium, 4% glucose, pH 6.5, sole sulfur source
Experimental: as §1

[23] = test system: Saccharomyces uvarum_SOA1; assay: as above; conditions: S. cerevisiae S288C/BY sul1Δ sul2Δ soa1Δ with transporter ortholog inserted at SOA1 locus, sulfur-free B medium, 4% glucose, pH 6.5, sole sulfur source
Experimental: as §1

[24] = test system: Saccharomyces uvarum_SOA2; assay: as above; conditions: S. cerevisiae S288C/BY sul1Δ sul2Δ soa1Δ with transporter ortholog inserted at SOA1 locus, sulfur-free B medium, 4% glucose, pH 6.5, sole sulfur source
Experimental: as §1

[25] = test system: Fusarium oxysporum_ENH65823; assay: as above; conditions: sulfur source concentration 200 µM; S. cerevisiae S288C/BY sul1Δ sul2Δ soa1Δ with transporter ortholog inserted at SOA1 locus; sulfur-free B medium, 4% glucose, pH 6.5, sole sulfur source
Experimental: as §1

[26] = test system: Metarhizium robertsii_XP_007822519; assay: as above; conditions: S. cerevisiae S288C/BY sul1Δ sul2Δ soa1Δ with transporter ortholog inserted at SOA1 locus, sulfur-free B medium, 4% glucose, pH 6.5, sole sulfur source
Experimental: as §1

[27] = test system: Saccharomyces cerevisiae_SOA1; assay: as above; conditions: S. cerevisiae S288C/BY sul1Δ sul2Δ soa1Δ with transporter ortholog inserted at SOA1 locus, sulfur-free B medium, 4% glucose, pH 6.5, sole sulfur source
Experimental: as §1

[28] = test system: Aspergillus nidulans_CBF74694; assay: as above; conditions: S. cerevisiae S288C/BY sul1Δ sul2Δ soa1Δ with transporter ortholog inserted at SOA1 locus, sulfur-free B medium, 4% glucose, pH 6.5, sole sulfur source
Experimental: as §1

[29] = test system: Ogataea parapolymorpha_XP_013935289; assay: lag phase before growth; higher = slower start of growth; conditions: S. cerevisiae S288C/BY sul1Δ sul2Δ soa1Δ with transporter ortholog inserted at SOA1 locus, sulfur-free B medium, 4% glucose, pH 6.5, sole sulfur source
Experimental: as §1

[30] = test system: Saccharomyces uvarum_SOA1; assay: as above; conditions: S. cerevisiae S288C/BY sul1Δ sul2Δ soa1Δ with transporter ortholog inserted at SOA1 locus, sulfur-free B medium, 4% glucose, pH 6.5, sole sulfur source
Experimental: as §1

[31] = test system: Saccharomyces eubayanus_SOA1; assay: as above; conditions: S. cerevisiae S288C/BY sul1Δ sul2Δ soa1Δ with transporter ortholog inserted at SOA1 locus, sulfur-free B medium, 4% glucose, pH 6.5, sole sulfur source
Experimental: as §1

[32] = test system: Saccharomyces uvarum_SOA2; assay: as above; conditions: sulfur source concentration 200 µM; S. cerevisiae S288C/BY sul1Δ sul2Δ soa1Δ with transporter ortholog inserted at SOA1 locus; sulfur-free B medium, 4% glucose, pH 6.5, sole sulfur source
Experimental: as §1

[33] = test system: Saccharomyces cerevisiae_SOA1; assay: as above; conditions: S. cerevisiae S288C/BY sul1Δ sul2Δ soa1Δ with transporter ortholog inserted at SOA1 locus, sulfur-free B medium, 4% glucose, pH 6.5, sole sulfur source
Experimental: as §1

[34] = sulfur source concentration 200 µM
[35] = sulfur source concentration 40000 µM

With `CCCCS(=O)(=O)O` [Butanesulfonate] the maximal growth rate [1, 34] was 0.087, the maximal growth rate [2, 34] was 0.0049 and the maximal growth rate [3, 34] was 0.0837. For the same compound, the maximal growth rate [4, 34] was 0.0795, the maximal growth rate [5, 34] was 0.0734 and the maximal growth rate [6, 34] was 0.0185. The maximal growth rate [7, 34] was 0.00447, the maximal growth rate [8, 34] was 0.00393 and the maximal growth rate [9, 34] was 0.00411. The maximal growth rate [10, 34] was 0.00375, the maximal growth rate [11, 34] was 0.0878 and the maximal growth rate [12, 34] was 0.00595. For the same compound, the maximal growth rate [13, 34] was 0.00666, the maximal growth rate [14, 34] was 0.00349 and the maximal growth rate [15, 34] was 0.00392. The maximal growth rate [16, 34] was 0.0152, the maximal growth rate [17, 34] was 0.00366 and the maximal growth rate [18, 34] was 0.0882. The maximal growth rate [19, 34] was 0.00657, the maximal growth rate [20, 34] was 0.00269 and the maximal growth rate (soa1 del; [34]) was 0.00398. For the same compound, the maximal culture density [21, 34] was 0.323, the maximal culture density [22, 34] was 1.69 and the maximal culture density [23, 34] was 1.59. It also gave a maximal culture density [24, 34] of 1.71, a maximal culture density [25] of 0.241 and a maximal culture density [26, 34] of 0.261. For the same compound, the maximal culture density [27, 34] was 1.58, the maximal culture density [28, 34] was 0.2 and the “lag phase before growth” value [29, 34] was 6.98 h. For the same compound, the “lag phase before growth” value [30, 34] was 8.4 h, the “lag phase before growth” value [31, 34] was 9.71 h and the “lag phase before growth” value [32] was 12.7 h. The “lag phase before growth” value [33, 34] was 9.34 h.

`O=S(=O)(O)O` [sulfate] was tested, and the maximal growth rate [1, 34] was 0.0777, the maximal growth rate [1, 35] was 0.124 and the maximal growth rate [2, 34] was 0.00477. The maximal growth rate [2, 35] was 0.00462, the maximal growth rate [3, 34] was 0.00313 and the maximal growth rate [3, 35] was 0.00349. For the same compound, the maximal growth rate [4, 34] was 0.0032, the maximal growth rate [4, 35] was 0.0989 and the maximal growth rate [5, 34] was 0.00395. For the same compound, the maximal growth rate [5, 35] was 0.0997, the maximal growth rate [6, 34] was 0.0953 and the maximal growth rate [6, 35] was 0.102. It also gave a maximal growth rate [7, 34] of 0.00472, a maximal growth rate [7, 35] of 0.00348 and a maximal growth rate [8, 34] of 0.00401. The maximal growth rate [8, 35] was 0.00492, the maximal growth rate [9, 34] was 0.00477 and the maximal growth rate [9, 35] was 0.00353. For the same compound, the maximal growth rate [10, 34] was 0.00309, the maximal growth rate [10, 35] was 0.00378 and the maximal growth rate [11, 34] was 0.00324. The maximal growth rate [11, 35] was 0.00336, the maximal growth rate [12, 34] was 0.00457 and the maximal growth rate [12, 35] was 0.0588. It also gave a maximal growth rate [13, 34] of 0.00615, a maximal growth rate [13, 35] of 0.0061 and a maximal growth rate [14, 34] of 0.00376. It also gave a maximal growth rate [14, 35] of 0.0142, a maximal growth rate [15, 34] of 0.00398 and a maximal growth rate [15, 35] of 0.00545. The maximal growth rate [16, 34] was 0.0813, the maximal growth rate [16, 35] was 0.088 and the maximal growth rate [17, 34] was 0.00347. For the same compound, the maximal growth rate [17, 35] was 0.00386, the maximal growth rate [18, 34] was 0.00588 and the maximal growth rate [18, 35] was 0.123. The maximal growth rate [19, 34] was 0.00621, the maximal growth rate [19, 35] was 0.00638 and the maximal growth rate [20, 34] was 0.00273. It also gave a maximal growth rate [20, 35] of 0.00346, a maximal growth rate (soa1 del; [34]) of 0.00368 and a maximal growth rate (soa1 del; [35]) of 0.0039. The maximal culture density [21, 34] was 0.294, the maximal culture density [21, 35] was 0.301 and the maximal culture density [22, 34] was 0.201. It also gave a maximal culture density [22, 35] of 0.21, a maximal culture density [23, 34] of 0.265 and a maximal culture density [23, 35] of 1.65. It also gave a maximal culture density [24, 34] of 0.199, a maximal culture density [24, 35] of 0.212 and a maximal culture density [25] of 0.233. It also gave a maximal culture density [26, 34] of 0.186, a maximal culture density [26, 35] of 0.213 and a maximal culture density [27, 34] of 0.274. It also gave a maximal culture density [27, 35] of 1.71, a maximal culture density [28, 34] of 0.184 and a maximal culture density [28, 35] of 0.208. For the same compound, the “lag phase before growth” value [29, 34] was 25.8 h, the “lag phase before growth” value [29, 35] was 7.95 h and the “lag phase before growth” value [30, 35] was 10.7 h. The “lag phase before growth” value [31, 35] was 16.8 h and the “lag phase before growth” value [33, 35] was 13.8 h.
